The subject of this assay is human immunodeficiency virus type 1 (HIV-1). Nature of the assay: microbe, parasite or virus in culture. Type of assay: cell-based. The conditions noted are these: Human immunodeficiency virus 1, HeLa, 48 h, HIV-1 luciferase reporter, HeLa cells, 48 hours after infection. (In general: A reporter such as luciferase makes a cellular process visible.)
`COc1nc2c(cc1NC1CCCc3ccccc31)c(=O)c(C(=O)O)cn2[C@H](CO)C(C)C` (stereo partly drawn) [Example 20JJ, 1-((S)-1-hydroxy-3-methylbutan-2-yl)-7-methoxy-4-oxo-6-(1,2,3,4-tetrahydronaphthalen-1-ylamino)-1,4-dihydro-1,8-naphthyridine-3-carboxylic acid] came in with a half-maximal effective concentration (EC50) greater than 100 nM.

Regarding `COc1nc2c(cc1NCc1ccc(Cl)c(Cl)c1)c(=O)c(C(=O)O)cn2[C@H](CO)C(C)C` [Example 20K, (S)-6-(3,4-dichlorobenzylamino)-1-(1-hydroxy-3-methylbutan-2-yl)-7-methoxy-4-oxo-1,4-dihydro-1,8-naphthyridine-3-carboxylic acid], the concentration giving a half-maximal response (EC50) was greater than 100 nM.

In turn, `COc1nc2c(cc1N[C@@H](C)c1ccc(F)cc1)c(=O)c(C(=O)O)cn2[C@H](CO)C(C)C` [Example 20KK, 6-((S)-1-(4-fluorophenyl)ethylamino)-1-((S)-1-hydroxy-3-methylbutan-2-yl)-7-methoxy-4-oxo-1,4-dihydro-1,8-naphthyridine-3-carboxylic acid] yielded a 50% effective concentration (EC50) greater than 100 nM.

Molecule `COc1nc2c(cc1NCc1cccc(Cl)c1Cl)c(=O)c(C(=O)O)cn2[C@H](CO)C(C)C` [Example 20L, (S)-6-(2,3-dichlorobenzylamino)-1-(1-hydroxy-3-methylbutan-2-yl)-7-methoxy-4-oxo-1,4-dihydro-1,8-naphthyridine-3-carboxylic acid] showed a 50% effective concentration (EC50) greater than 100 nM.

For the molecule `COc1nc2c(cc1N[C@H](C)c1ccc(F)cc1)c(=O)c(C(=O)O)cn2[C@H](CO)C(C)C` [Example 20LL, 6-((R)-1-(4-fluorophenyl)ethylamino)-1-((S)-1-hydroxy-3-methylbutan-2-yl)-7-methoxy-4-oxo-1,4-dihydro-1,8-naphthyridine-3-carboxylic acid], the 50% effective concentration (EC50) is greater than 100 nM.

On to `COc1nc2c(cc1NCc1ccccc1Cl)c(=O)c(C(=O)O)cn2[C@H](CO)C(C)C` [Example 20M, (S)-6-(2-chlorobenzylamino)-1-(1-hydroxy-3-methylbutan-2-yl)-7-methoxy-4-oxo-1,4-dihydro-1,8-naphthyridine-3-carboxylic acid], for which the concentration giving a half-maximal response (EC50) was greater than 100 nM.

`COc1nc2c(cc1NCc1ccc(F)cc1)c(=O)c(C(=O)O)cn2[C@H](CO)C(C)(C)C` [Example 20MM, (S)-6-(4-fluorobenzylamino)-1-(1-hydroxy-3,3-dimethylbutan-2-yl)-7-methoxy-4-oxo-1,4-dihydro-1,8-naphthyridine-3-carboxylic acid] gave an EC50 greater than 100 nM.

Molecule `COc1nc2c(cc1NCc1ccc(F)c(F)c1)c(=O)c(C(=O)O)cn2[C@H](CO)C(C)C` [Example 20N, (S)-6-(3,4-difluorobenzylamino)-1-(1-hydroxy-3-methylbutan-2-yl)-7-methoxy-4-oxo-1,4-dihydro-1,8-naphthyridine-3-carboxylic acid] displayed an EC50 greater than 100 nM.

`COc1nc2c(cc1NCc1ccccc1)c(=O)c(C(=O)O)cn2[C@H](CO)C(C)C` [Example 20O, (S)-6-(benzylamino)-1-(1-hydroxy-3-methylbutan-2-yl)-7-methoxy-4-oxo-1,4-dihydro-1,8-naphthyridine-3-carboxylic acid] came in with an EC50 greater than 100 nM.

`COc1nc2c(cc1Nc1cccc(Cl)c1F)c(=O)c(C(=O)O)cn2[C@H](CO)C(C)C` [Example 20OO, (S)-6-(3-chloro-2-fluorophenylamino)-1-(1-hydroxy-3-methylbutan-2-yl)-7-methoxy-4-oxo-1,4-dihydro-1,8-naphthyridine-3-carboxylic acid]: the EC50 was greater than 100 nM.

`COc1nc2c(cc1Nc1ccc(Cl)c(F)c1)c(=O)c(C(=O)O)cn2[C@H](CO)C(C)C` [Example 20PP, (S)-6-(4-chloro-3-fluorophenylamino)-1-(1-hydroxy-3-methylbutan-2-yl)-7-methoxy-4-oxo-1,4-dihydro-1,8-naphthyridine-3-carboxylic acid] gave an EC50 greater than 100 nM.

`COc1nc2c(cc1Nc1ccc(F)cc1)c(=O)c(C(=O)O)cn2[C@H](CO)C(C)C` [Example 20QQ, (S)-6-(4-fluorophenylamino)-1-(1-hydroxy-3-methylbutan-2-yl)-7-methoxy-4-oxo-1,4-dihydro-1,8-naphthyridine-3-carboxylic acid] had an EC50 greater than 100 nM.

The molecule `COc1nc2c(cc1NCc1ccc(F)cc1F)c(=O)c(C(=O)O)cn2[C@H](CO)C(C)C` [Example 20R, (S)-6-(2,4-difluorobenzylamino)-1-(1-hydroxy-3-methylbutan-2-yl)-7-methoxy-4-oxo-1,4-dihydro-1,8-naphthyridine-3-carboxylic acid] came in with an EC50 of 10 to 100 nM.

For `COc1nc2c(cc1Nc1ccc(F)c(Cl)c1)c(=O)c(C(=O)O)cn2[C@H](CO)C(C)C` [Example 20RR, (S)-6-(3-chloro-4-fluorophenylamino)-1-(1-hydroxy-3-methylbutan-2-yl)-7-methoxy-4-oxo-1,4-dihydro-1,8-naphthyridine-3-carboxylic acid], the half-maximal effective concentration (EC50) is greater than 100 nM.

`COc1nc2c(cc1NCCc1ccccc1F)c(=O)c(C(=O)O)cn2[C@H](CO)C(C)C` [Example 20S, (S)-6-(2-fluorophenethylamino)-1-(1-hydroxy-3-methylbutan-2-yl)-7-methoxy-4-oxo-1,4-dihydro-1,8-naphthyridine-3-carboxylic acid] displayed a half-maximal effective concentration (EC50) greater than 100 nM.

As to `COc1nc2c(cc1NCCc1ccc(F)cc1)c(=O)c(C(=O)O)cn2[C@H](CO)C(C)C` [Example 20T, (S)-6-(4-fluorophenethylamino)-1-(1-hydroxy-3-methylbutan-2-yl)-7-methoxy-4-oxo-1,4-dihydro-1,8-naphthyridine-3-carboxylic acid], the concentration giving a half-maximal response (EC50) is greater than 100 nM.

Turning to `COc1nc2c(cc1N(C)Cc1ccccc1F)c(=O)c(C(=O)O)cn2[C@H](CO)C(C)C` [Example 20U, (S)-6-((2-fluorobenzyl)(methyl)amino)-1-(1-hydroxy-3-methylbutan-2-yl)-7-methoxy-4-oxo-1,4-dihydro-1,8-naphthyridine-3-carboxylic acid], the concentration giving a half-maximal response (EC50) is greater than 100 nM.

Consider `COc1nc2c(cc1N(C)Cc1ccc(F)cc1)c(=O)c(C(=O)O)cn2[C@H](CO)C(C)C` [Example 20V, (S)-6-((4-fluorobenzyl)(methyl)amino)-1-(1-hydroxy-3-methylbutan-2-yl)-7-methoxy-4-oxo-1,4-dihydro-1,8-naphthyridine-3-carboxylic acid], for which the 50% effective concentration (EC50) was greater than 100 nM.

Molecule `COc1nc2c(cc1NCc1ccccc1C(F)(F)F)c(=O)c(C(=O)O)cn2[C@H](CO)C(C)C` [Example 20W, (S)-1-(1-hydroxy-3-methylbutan-2-yl)-7-methoxy-4-oxo-6-(2-(trifluoromethyl)benzylamino)-1,4-dihydro-1,8-naphthyridine-3-carboxylic acid] showed a concentration for a half-maximal effect (EC50) greater than 100 nM.

As for `COc1nc2c(cc1NCc1cccc(C(F)(F)F)c1)c(=O)c(C(=O)O)cn2[C@H](CO)C(C)C` [Example 20X, (S)-1-(1-hydroxy-3-methylbutan-2-yl)-7-methoxy-4-oxo-6-(3-(trifluoromethyl)benzylamino)-1,4-dihydro-1,8-naphthyridine-3-carboxylic acid], the EC50 was greater than 100 nM.

In turn, `COc1nc2c(cc1NCc1ccc(C(F)(F)F)cc1)c(=O)c(C(=O)O)cn2[C@H](CO)C(C)C` [Example 20Y, (S)-1-(1-hydroxy-3-methylbutan-2-yl)-7-methoxy-4-oxo-6-(4-(trifluoromethyl)benzylamino)-1,4-dihydro-1,8-naphthyridine-3-carboxylic acid] registered a 50% effective concentration (EC50) greater than 100 nM.

Turning to `COc1nc2c(cc1NCc1c(F)cccc1F)c(=O)c(C(=O)O)cn2[C@H](CO)C(C)C` [Example 20Z, (S)-6-(2,6-difluorobenzylamino)-1-(1-hydroxy-3-methylbutan-2-yl)-7-methoxy-4-oxo-1,4-dihydro-1,8-naphthyridine-3-carboxylic acid], the EC50 lay in the range of 10 to 100 nM.

`COc1cc2c(cc1NCc1ccc(F)cc1)c(=O)c(C(=O)O)cn2[C@H](CO)C(C)C` [Example 21A, (S)-6-(4-Fluorobenzylamino)-1-(1-hydroxy-3-methylbutan-2-yl)-7-methoxy-4-oxo-1,4-dihydroquinoline-3-carboxylic acid] registered a concentration giving a half-maximal response (EC50) of less than 10 nM.

`COc1cc2c(cc1NCc1c(F)cc(F)cc1F)c(=O)c(C(=O)O)cn2[C@H](CO)C(C)C` [Example 21B, (S)-1-(1-hydroxy-3-methylbutan-2-yl)-7-methoxy-4-oxo-6-(2,4,6-trifluorobenzylamino)-1,4-dihydroquinoline-3-carboxylic acid] yielded a half-maximal effective concentration (EC50) of less than 10 nM.

For `COc1cc2c(cc1NCc1c(F)cccc1F)c(=O)c(C(=O)O)cn2[C@H](CO)C(C)C` [Example 21C, (S)-6-(2,6-difluorobenzylamino)-1-(1-hydroxy-3-methylbutan-2-yl)-7-methoxy-4-oxo-1,4-dihydroquinoline-3-carboxylic acid], the concentration giving a half-maximal response (EC50) fell in the range of 10 to 100 nM.

On to `COc1cc2c(cc1NCc1ccc(F)cc1F)c(=O)c(C(=O)O)cn2[C@H](CO)C(C)C` [Example 21D, (S)-6-(2,4-difluorobenzylamino)-1-(1-hydroxy-3-methylbutan-2-yl)-7-methxoy-4-oxo-1,4-dihydroquinoline-carboxylic acid], for which the half-maximal effective concentration (EC50) fell in the range of 10 to 100 nM.

Molecule `CC(C)[C@@H](CO)n1cc(C(=O)O)c(=O)c2cc(NCc3ccc(F)cc3)ccc21` [Example 22A, (S)-6-(4-fluorobenzylamino)-1-(1-hydroxy-3-methylbutan-2-yl)-4-oxo-1,4-dihydroquinoline-3-carboxylic acid] came in with an EC50 greater than 100 nM.

On to `CC(C)(C)[C@@H](CO)n1cc(C(=O)O)c(=O)c2cc(NCc3ccc(F)cc3)ccc21` [Example 22B, (S)-6-(4-fluorobenzylamino)-1-(1-hydroxy-3,3-dimethylbutan-2-yl)-4-oxo-1,4-dihydroquinoline-3-carboxylic acid], for which the concentration for a half-maximal effect (EC50) was 10 to 100 nM.

For the molecule `CC(C)[C@@H](CO)n1cc(C(=O)O)c(=O)c2cc(NCc3c(F)cc(F)cc3F)ccc21` [Example 22C, (S)-1-(1-hydroxy-3-methylbutan-2-yl)-4-oxo-6-(2,4,6-trifluorobenzylamino)-1,4-dihydroquinoline-3-carboxylic acid], the EC50 was 10 to 100 nM.

With `CC(C)[C@@H](CO)n1cc(C(=O)O)c(=O)c2cc(OCc3ccc(F)cc3)ccc21` [Example 23A, (S)-6-(4-fluorobenzyloxy)-1-(1-hydroxy-3-methylbutan-2-yl)-4-oxo-1,4-dihydroquinoline-3-carboxylic acid], the EC50 was greater than 100 nM.

As a reminder, the EC50 is the concentration needed to bring the measured effect to its halfway point. A higher EC50 goes with a need for much substance.

The values are drawn from patent US20110166123A1, “NOVEL COMPOSITIONS AND METHODS OF USE” (priority 2008, published 2011).
